Biological target: T1, S15V-hP2X3R (Homo sapiens, UniProt P56373, S15V)
T1 construct: expressed in transfected cells; host or cells: Xenopus laevis oocytes (cRNA injection)
T1 sequence (P56373 1-397 S15V): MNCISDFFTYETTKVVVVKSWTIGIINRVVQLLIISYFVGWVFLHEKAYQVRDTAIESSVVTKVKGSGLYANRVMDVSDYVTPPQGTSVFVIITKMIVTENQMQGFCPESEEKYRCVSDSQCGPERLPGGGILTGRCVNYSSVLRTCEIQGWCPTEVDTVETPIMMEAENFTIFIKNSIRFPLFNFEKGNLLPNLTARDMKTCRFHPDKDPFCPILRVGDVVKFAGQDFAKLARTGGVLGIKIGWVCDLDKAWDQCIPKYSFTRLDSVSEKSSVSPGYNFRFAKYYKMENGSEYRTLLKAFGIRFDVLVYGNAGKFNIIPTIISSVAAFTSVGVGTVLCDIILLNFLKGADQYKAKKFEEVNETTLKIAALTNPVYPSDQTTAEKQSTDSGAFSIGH
Assay: TEVC of ATP-induced currents, S15V-hP2X3R expressed in X. laevis oocytes (peak current protocol)
Format: cell-based
Conditions: for IC50: 30-s preincubation of antagonist, X. laevis oocytes, −60 mV, geometric mean
Excerpt: Oocyte expression plasmids encoding the wild-type (wt) and N-terminally His-tagged (His-) fusion constructs of the hP2X2R, hP2X3R, hP2X4R, and hP2X7R, and the mutant His-^20RMVL^23KVIV^23S^26N-hP2X1R, S^15V-rP2X3R, and His-S^15V-hP2X3R were the same as used in previous research ([Hausmann et al., 2006]; [Wolf et al., 2011]; [Hausmann et al., 2014]; [Obrecht et al., 2019]). In most cases, the N-terminal His-tagged variants of P2XRs were used here and in the previous studies to allow biochemical analyses on affinity-purified proteins using the same constructs. Although this was not required for the present study, it allows for better comparability with our previous studies. Capped cRNAs of different P2XRs were already available in the research group or were synthesized as previously described ([Schmalzing et al., 1991]; [Stolz et al., 2015]). cRNA was injected into collagenase-defolliculated X. laevis oocytes in aliquots of 41 nl or 23 nl (see Supplementary Table S1 for the amount of cRNA used for expression of the indicated P2XR) using a Nanoliter 2000 injector (World Precision Instruments, Sarasota, United States of America) as described previously ([Hausmann et al., 2014]; [Stolz et al., 2015]; [Obrecht et al., 2019]). To express the heteromeric hP2X2/3 receptor, cRNAs encoding His-hP2X2R and wt-hP2X3R were coinjected at a ratio (w/w) of 1:6. Oocytes were stored at 19°C in an oocyte ringer solution (ORi^+) containing 90 mM NaCl, 1 mM KCl, 1 mM CaCl2, 1 mM MgCl2, and 10 mM HEPES (Carl Roth, Karlsruhe, Germany) adjusted to pH 7.4 with NaOH and supplemented with 50 μg/ml gentamicin (AppliChem, Darmstadt, Germany). The procedures followed for the maintenance of and the surgical treatment for X. laevis adults were approved by the governmental animal care and use committee of the State Agency for Nature, Environment, and Consumer Protection (LANUV, Recklinghausen, Germany; reference no. 81-02.04.2019. A355), in compliance with Directive 2010/63/EU of the European Parliament and of the Council on the protection of animals used for scientific purpose.
Ion currents mediated by P2X receptors were evoked by the indicated concentration of ATP or α,β-meATP and were recorded 1 or 2 days after cRNA injection at ambient temperature at a holding potential of −60 mV by two-electrode voltage clamp (TEVC) as previously described ([Hausmann et al., 2006]). Calcium-free ORi^− solution (90 mM NaCl, 1 mM KCl, 2 mM MgCl2, 10 mM HEPES, pH 7.4) was used to avoid bias due to calcium-activated chloride channels (CaCC) endogenously expressed in X. laevis oocytes ([Miledi, 1982]; [Methfessel et al., 1986]). For recordings of wt-hP2X7R, the composition of the ORi^− solution was modified according to protocols described previously and contained 100 mM NaCl, 2.5 mM KCl, 1 mM MgCl2, 5 mM HEPES, pH 7.4 ([Klapperstück et al., 2000]). The oocytes were continuously superfused with ORi^− by gravity flow (5–10 ml/min). The agonists ATP or α,β-meATP and the investigated NSAIDs were diluted in ORi^− on the day of the recording. […] A peak current protocol (Supplementary Figure S1) was used to analyze fast- and intermediate desensitizing P2XR subtypes (P2X1R, P2X3R, and S^15V-P2X3R), and a steady-state protocol (Supplementary Figure S2) was used for slowly or partially desensitizing P2X subtypes (P2X2R, P2X2/3R, and P2X4R). For recordings of P2X7R, a modified steady-state protocol was used ([Hausmann et al., 2006]). The application of different bath solutions was controlled by computer-operated magnetic valves controlled by the CellWorks E 5.5.1 software (npi electronic, Tamm, Germany).
Antagonist concentration–response data and IC50 values were calculated by normalizing ATP-induced responses to the control responses (recorded in the presence and absence of the antagonist, respectively). […]

Cc1c(Nc2ncccc2C(=O)O)cccc1C(F)(F)F [Flunixin, flunixin]
IC50 (1 µM ATP): 32.4 µM | inhibition at 1000 µM (1 mM antagonist, 1 µM ATP, mean ± SEM, read-out: Max. inhibition at 1 mM): 53% | reversibility of the inhibitory effect by washout (subsequent control current after washout): not reversible

CC(C)Cc1ccc(C(C)C(=O)O)cc1 (stereo not drawn) [Ibuprofen, ibuprofen]
IC50 (1 µM ATP): > 300 µM | reduction of ATP-induced current amplitude at 100 µM antagonist (1 µM ATP): 15%–18%

Cc1ccc(Cl)c(Nc2ccccc2C(=O)O)c1Cl [Meclofenamic acid, meclofenamic acid]
IC50 (1 µM ATP): > 300 µM | reduction of ATP-induced current amplitude at 100 µM antagonist (1 µM ATP): 15%–18%

COc1ccc2cc([C@H](C)C(=O)O)ccc2c1 [Naproxen, naproxen]
IC50 (1 µM ATP): > 300 µM | reduction of ATP-induced current amplitude at 100 µM antagonist (1 µM ATP): 15%–18%

Source: publication PMC10060569 (Frontiers in Pharmacology, 2023)
